What was measured:
Format in all cases: in vivo
[1] = tested on: Erysiphe graminis f. sp. tritici; test: Test G: preventive spray on wheat seedlings, wheat powdery mildew, visual disease rating; details: for pest or weed control at 250 ppm: Blumeria graminis, 192 h
How it was run: (§1)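 Preventive foliar spray of wheat seedlings to run-off, at 250 ppm or other indicated rate. Compounds dissolved in acetone (3% of final volume), suspended in 50/50 acetone–water with PEG400 surfactant. Disease rated visually.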

Plasmopara viticola = test: Test B: preventive spray on grape seedlings, grape downy mildew, disease rating; details: 250 ppm, 100 = 100% disease control, 0 = no control
Description: General protocol for preparing test solutions for Tests AG: the test compounds were first dissolved in acetone in an amount equal to 3% of the final volume and then suspended at the desired concentration (in ppm) in acetone and purified water (50/50 mix by volume) containing the surfactant PEG400 (polyhydric alcohol esters). The resulting test suspensions were then used in Tests AG. Compounds were sprayed at a concentration of 250 ppm or other indicated rate to the point of run-off on the test plants. The test solution was sprayed to the point of run-off on grape seedlings. […] A dash (-) indicates no test results.

Botrytis cinerea = test: Test C: preventive spray on tomato seedlings, gray mold, visual disease rating; details: for pest or weed control at 250 ppm: Botrytis cinerea
How it was run: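 Tomato seedlings received a run-off spray, typically 250 ppm (or stated rate), ahead of gray mold inoculation and visual scoring. Test suspensions: acetone stock (3% of volume) diluted into 1:1 acetone/water containing PEG400.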

Phytophthora infestans = test: whole plant or invertebrate; details: for Test D disease control rating: tomato seedlings; for pest or weed control at 250 ppm: Phytophthora infestans, in Solanum lycopersicum, read-out: Test D disease control rating
[2] = tested on: Puccinia recondita f. sp. tritici; test: Test F: preventive spray on wheat seedlings, wheat leaf rust, visual disease rating; details: for pest or weed control at 250 ppm: Puccinia recondita
How it was run: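 Preventive test: wheat seedlings were sprayed to run-off with compound suspended in acetone/water 50/50 plus PEG400 (250 ppm or other indicated rate). One day later they received Puccinia recondita f. sp. tritici spores, and disease was scored visually.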

Zymoseptoria tritici = test: Test E: preventive spray on wheat seedlings, wheat leaf blotch, visual disease rating; details: for pest or weed control at 250 ppm: Zymoseptoria tritici
How it was run: as §1

Phakopsora pachyrhizi = test: Test A: preventive spray on soybean seedlings, Asian soybean rust, visual disease rating; details: for pest or weed control at 250 ppm: Phakopsora pachyrhizi
[3] = 250 ppm, 100 = 100% disease control, 0 = no control

SMILES | Test G disease control rating [1, 3] | Test B disease control rating (Plasmopara viticola) | Test C disease control rating (Botrytis cinerea; [3]) | Test D disease control rating (Phytophthora infestans; [3]) | Test F disease control rating [2, 3] | Test E disease control rating (Zymoseptoria tritici; [3]) | also measured
Cn1nc(-c2ccccc2)c(O)c(C(=O)Nc2ccccc2C(F)(F)F)c1=O [Compound 26] | 84% | 49% | 0% | 58% | 68% | 0% | –
Cn1ncc(O)c(C(=O)Nc2ccccc2OC(F)(F)F)c1=O [Compound 126] | 93% | 95% | 0% | – | 89% | 82% | –
Cn1ncc(O)c(C(=O)Nc2c(Cl)cc(OC(F)(F)F)cc2Cl)c1=O [Compound 133] | 100% | 100% | 0% | 89% | 86% | 100% | –
O=C(Nc1ccc(OC(F)(F)F)cc1)c1c(O)cnn(CC(F)(F)F)c1=O [Compound 119] | 99% | 100% | 0% | 87% | 97% | 73% | –
Cn1ncc2oc(=O)n(-c3ccc(OC(F)(F)F)cc3)c(=O)c2c1=O [Compound 89, 6-Methyl-3-[4-(trifluoromethoxy)phenyl]-2H-pyridazino[4,5-e]-1,3-oxazine-2,4,5(3H,6H)-trione] | – | 99% | – | – | – | – | pest or weed control at 250 ppm [1, 3]: 61%; pest or weed control at 250 ppm (Botrytis cinerea; [3]): 0%; pest or weed control at 250 ppm (Phytophthora infestans): 67%; pest or weed control at 250 ppm [2, 3]: 99%; pest or weed control at 250 ppm (Zymoseptoria tritici; [3]): 97%
CCCC(=O)Oc1cnn(C)c(=O)c1C(=O)Nc1ccc(OC(F)(F)F)cc1 [Compound 87] | 99% | 100% | 0% | – | 100% | 100% | –
COc1ccc(NC(=O)c2c(O)cnn(C)c2=O)cc1 [Compound 92] | 35% | 92% | 99% | 68% | 89% | 59% | –
Cn1ncc(O)c(C(=O)Nc2ccc(OC(F)(F)F)cc2C(F)(F)F)c1=O [Compound 148] | 98% | 79% | 0% | – | 86% | 79% | –
Cc1cc(OC(F)(F)F)ccc1NC(=O)c1c(O)cnn(C)c1=O [Compound 124] | 99% | 99% | 0% | 99% | 99% | – | –
CCCC(=O)Oc1cnn(C)c(=O)c1C(=O)N(C(=O)CCC)c1ccc(OC(F)(F)F)cc1 [Compound 139] | 100% | 100% | 0% | 0% | 100% | – | –
Cn1ncc(O)c(C(=O)Nc2c(Cl)cc(Cl)cc2Cl)c1=O [Compound 118] | 97% | 71% | 0% | 100% | 86% | – | –
Cn1ncc(O)c(C(=O)Nc2ccc(F)cc2C(F)(F)F)c1=O [Compound 145] | 99% | 100% | 0% | – | 99% | 99% | –
Cn1ncc(OS(C)(=O)=O)c(C(=O)Nc2ccc(C#N)cc2)c1=O [Compound 98, N-(4-cyanophenyl)-2,3-dihydro-2-methyl-5-[(methylsulfonyl)oxy]-3-oxo-4-pyridazinecarboxamide] | – | – | – | – | – | – | pest or weed control at 250 ppm [1, 3]: 0%; pest or weed control at 250 ppm (Botrytis cinerea; [3]): 98%; pest or weed control at 250 ppm (Phakopsora pachyrhizi; [3]): 99%; pest or weed control at 250 ppm (Phytophthora infestans): 9%; pest or weed control at 250 ppm [2, 3]: 97%; pest or weed control at 250 ppm (Zymoseptoria tritici; [3]): 95%
COc1ccc(NC(=O)c2c(Cl)cnn(C)c2=O)cc1 [Compound 30] | 0% | – | 0% | 0% | 96% | 0% | Test A disease control rating (Phakopsora pachyrhizi; [3]): 60%
Cn1ncc(O)c(C(=O)Nc2ccccc2Br)c1=O [Compound 35] | 0% | – | 0% | 71% | 98% | 0% | Test A disease control rating (Phakopsora pachyrhizi; [3]): 0%
Cn1ncc(OS(C)(=O)=O)c(C(=O)Nc2ccc(C(F)(F)F)cc2F)c1=O [Compound 102] | 0% | – | 41% | 26% | 99% | 95% | Test A disease control rating (Phakopsora pachyrhizi; [3]): 99%
Cn1ncc(Cl)c(C(=O)Nc2ccc(OC(F)(F)F)cc2F)c1=O [Compound 51] | – | – | – | – | – | – | Test G disease control rating ([1]; 125 ppm): 0%; Test C disease control rating (Botrytis cinerea; 125 ppm): 97%; Test A disease control rating (Phakopsora pachyrhizi; 125 ppm): 99%; Test D disease control rating (Phytophthora infestans; 125 ppm): 57%; Test F disease control rating ([2]; 125 ppm): 96%; Test E disease control rating (Zymoseptoria tritici; 125 ppm): 89%
COc1cccc(NC(=O)c2c(OS(C)(=O)=O)cnn(C)c2=O)c1 [Compound 108] | 0% | – | 0% | 0% | 68% | 0% | Test A disease control rating (Phakopsora pachyrhizi; [3]): 0%
Cn1ncc(OS(C)(=O)=O)c(C(=O)Nc2ccccc2-c2cc(F)c(F)c(F)c2)c1=O [Compound 103] | 73% | – | 0% | 0% | 90% | 96% | Test A disease control rating (Phakopsora pachyrhizi; [3]): 84%
Cn1ncc(OS(C)(=O)=O)c(C(=O)Nc2ccc(S(F)(F)(F)(F)F)cc2)c1=O [Compound 99, [4-[[[2,3-Dihydro-2-methyl-5-[(methylsulfonyl)oxy]-3-oxo-4-pyridazinyl]carbonyl]amino]phenyl]pentafluorosulfur] | – | – | – | – | – | – | pest or weed control at 250 ppm [1, 3]: 83%; pest or weed control at 250 ppm (Botrytis cinerea; [3]): 50%; pest or weed control at 250 ppm (Phakopsora pachyrhizi; [3]): 99%; pest or weed control at 250 ppm (Phytophthora infestans): 92%; pest or weed control at 250 ppm [2, 3]: 98%; pest or weed control at 250 ppm (Zymoseptoria tritici; [3]): 100%
Cn1ncc(OS(C)(=O)=O)c(C(=O)Nc2ccc(F)cc2)c1=O [Compound 101] | 0% | – | 0% | 9% | 99% | 78% | Test A disease control rating (Phakopsora pachyrhizi; [3]): 78%

From patent US20190133128A1, “Fungicidal pyridazinones” (FMC Corporation, priority 2017, published 2019)
